In ChEMBL document CHEMBL2413072, “Synthesis and in vitro anticancer studies of novel C-2 arylidene congeners of lantadenes” (2013):

What was measured:
Format in all cases: functional
NCI-H460 = experiment: Growth inhibition of human NCI-H460 cells by sulforhodamine B assay
HOP-92 = experiment: Growth inhibition of human HOP92 cells by sulforhodamine B assay
CCRF-CEM = experiment: Growth inhibition of human CCRF-CEM cells by sulforhodamine B assay
OVCAR-3 = experiment: Growth inhibition of human OVCAR3 cells assessed as cell growth at 10^-8 M by sulforhodamine B assay; conditions: read-out: Activity
SNB-19 = experiment: Growth inhibition of human SNB19 cells assessed as cell growth at 10^-8 M by sulforhodamine B assay; conditions: read-out: Activity
KM12 = experiment: Growth inhibition of human KM12 cells assessed as cell growth at 10^-8 M by sulforhodamine B assay; conditions: read-out: Activity
[1] = Growth inhibition of human HCC2998 cells assessed as cell growth at 10^-8 M by sulforhodamine B assay; conditions: HCC 2998, read-out: Activity
HCT-116 = experiment: Growth inhibition of human HCT116 cells assessed as cell growth at 10^-8 M by sulforhodamine B assay; conditions: read-out: Activity
NCI-H23 = experiment: Growth inhibition of human NCI-H23 cells assessed as cell growth at 10^-8 M by sulforhodamine B assay; conditions: read-out: Activity
SR = experiment: Growth inhibition of human SR cells assessed as cell growth at 10^-8 M by sulforhodamine B assay; conditions: read-out: Activity
K562 = experiment: Growth inhibition of human K562 cells assessed as cell growth at 10^-8 M by sulforhodamine B assay; conditions: read-out: Activity
786-0 [2] = experiment: Growth inhibition of human 786-0 cells by sulforhodamine B assay
IGROV-1 = experiment: Growth inhibition of human IGROV1 cells by sulforhodamine B assay
UACC-257 = experiment: Growth inhibition of human UACC257 cells by sulforhodamine B assay
M14 [3] = experiment: Growth inhibition of human M14 cells by sulforhodamine B assay
SNB-75 = experiment: Growth inhibition of human SNB75 cells by sulforhodamine B assay
CAKI-1 = experiment: Growth inhibition of human CAKI-1 cells assessed as cell growth at 10^-4 M by sulforhodamine B assay; conditions: read-out: Activity
SK-OV-3 [4] = experiment: Growth inhibition of human SKOV3 cells assessed as cell growth at 10^-4 M by sulforhodamine B assay; conditions: read-out: Activity
SK-MEL-2 = experiment: Growth inhibition of human SK-MEL-2 cells assessed as cell growth at 10^-4 M by sulforhodamine B assay; conditions: read-out: Activity
SF-295 = experiment: Growth inhibition of human SF295 cells assessed as cell growth at 10^-4 M by sulforhodamine B assay; conditions: read-out: Activity
RPMI-8226 = experiment: Growth inhibition of human RPMI8226 cells assessed as cell growth at 10^-4 M by sulforhodamine B assay; conditions: read-out: Activity
HL-60(TB) [5] = experiment: Growth inhibition of human HL-60(TB) cells assessed as cell growth at 10^-4 M by sulforhodamine B assay; conditions: read-out: Activity
UO-31 = experiment: Growth inhibition of human UO31 cells assessed as cell growth at 10^-6 M by sulforhodamine B assay; conditions: read-out: Activity
A498 [6] = experiment: Growth inhibition of human A498 cells assessed as cell growth at 10^-6 M by sulforhodamine B assay; conditions: read-out: Activity
SK-MEL-5 = experiment: Growth inhibition of human SK-MEL-5 cells assessed as cell growth at 10^-6 M by sulforhodamine B assay; conditions: read-out: Activity
MDA-MB-435 = experiment: Growth inhibition of human MDA-MB-435 cells assessed as cell growth at 10^-6 M by sulforhodamine B assay; conditions: read-out: Activity
SF-539 = experiment: Growth inhibition of human SF539 cells assessed as cell growth at 10^-6 M by sulforhodamine B assay; conditions: read-out: Activity
SF-268 = experiment: Growth inhibition of human SF268 cells assessed as cell growth at 10^-6 M by sulforhodamine B assay; conditions: read-out: Activity
HOP-62 = experiment: Growth inhibition of human HOP62 cells assessed as cell growth at 10^-6 M by sulforhodamine B assay; conditions: read-out: Activity
HL-60(TB) [7] = experiment: Growth inhibition of human HL-60(TB) cells assessed as cell growth at 10^-6 M by sulforhodamine B assay; conditions: read-out: Activity
MDA-MB-231 = experiment: Growth inhibition of human MDA-MB-231 cells assessed as cell growth at 10^-7 M by sulforhodamine B assay; conditions: read-out: Activity
SK-MEL-28 = experiment: Growth inhibition of human SK-MEL-28 cells assessed as cell growth at 10^-7 M by sulforhodamine B assay; conditions: read-out: Activity
M14 [8] = experiment: Growth inhibition of human M14 cells assessed as cell growth at 10^-7 M by sulforhodamine B assay; conditions: read-out: Activity
A549 = experiment: Growth inhibition of human A549/ATCC cells assessed as cell growth at 10^-7 M by sulforhodamine B assay; conditions: read-out: Activity
DU-145 = experiment: Growth inhibition of human DU145 cells assessed as cell growth at 10^-8 M by sulforhodamine B assay; conditions: read-out: Activity
TK-10 = experiment: Growth inhibition of human TK10 cells assessed as cell growth at 10^-8 M by sulforhodamine B assay; conditions: read-out: Activity
786-0 [9] = experiment: Growth inhibition of human 786-0 cells assessed as cell growth at 10^-8 M by sulforhodamine B assay; conditions: read-out: Activity
A498 [10] = experiment: Growth inhibition of human A498 cells assessed as cell growth at 10^-8 M by sulforhodamine B assay; conditions: read-out: Activity
SK-OV-3 [11] = experiment: Growth inhibition of human SKOV3 cells assessed as cell growth at 10^-8 M by sulforhodamine B assay; conditions: read-out: Activity
OVCAR-4 = experiment: Growth inhibition of human OVCAR4 cells assessed as cell growth at 10^-8 M by sulforhodamine B assay; conditions: read-out: Activity
[12] = read-out: LC50 (the source's name)
[13] = read-out: pLC50 (the source's name) (converted)

## C/C=C(/C)C(=O)O[C@@H]1CC(C)(C)C[C@H]2C3=CC[C@@H]4[C@@]5(C)CC[C@H](O)C(C)(C)[C@@H]5CC[C@@]4(C)[C@]3(C)CC[C@@]12C(=O)O [Reduced Lantadene A]
NCI-H460; read-out: GI50
  GI50: 2.84 µM
NCI-H460; read-out: LC50
  LC50: > 100 µM
NCI-H460; read-out: TGI
  TGI: 11.7 µM
NCI-H460; read-out: pGI50 (converted)
  GI50: 2.82 µM
NCI-H460; read-out: pLC50 (converted)
  LC50: > 100 µM
NCI-H460; read-out: pTGI (converted)
  TGI: 11.7 µM
HOP-92; read-out: GI50
  GI50: 1.41 µM
HOP-92; [12]
  CC50: 6.21 µM
HOP-92; read-out: TGI
  TGI: 2.96 µM
HOP-92; read-out: pGI50 (converted)
  GI50: 1.41 µM
HOP-92; [13]
  CC50: 6.17 µM
HOP-92; read-out: pTGI (converted)
  TGI: 2.95 µM
CCRF-CEM; read-out: GI50
  GI50: 2.31 µM
CCRF-CEM; [12]
  CC50: > 100 µM
CCRF-CEM; read-out: TGI
  TGI: 6.52 µM
CCRF-CEM; read-out: pGI50 (converted)
  GI50: 2.29 µM
CCRF-CEM; [13]
  CC50: > 100 µM
CCRF-CEM; read-out: pTGI (converted)
  TGI: 6.46 µM
OVCAR-3
  growth at 0.01 µM: 106%
SNB-19
  growth at 0.01 µM: 90%
KM12
  growth at 0.01 µM: 104%
[1]
  growth at 0.01 µM: 99%
HCT-116
  growth at 0.01 µM: 97%
NCI-H23
  growth at 0.01 µM: 101%
SR
  growth at 0.01 µM: 83%
K562
  growth at 0.01 µM: 107%
786-0 [2]; read-out: GI50
  GI50: 1.81 µM
786-0 [2]; [12]
  CC50: 6.44 µM
786-0 [2]; read-out: TGI
  TGI: 3.41 µM
786-0 [2]; read-out: pGI50 (converted)
  GI50: 1.82 µM
786-0 [2]; [13]
  CC50: 6.46 µM
786-0 [2]; read-out: pTGI (converted)
  TGI: 3.39 µM
IGROV-1; read-out: GI50
  GI50: 2.32 µM
IGROV-1; [12]
  CC50: 9.24 µM
IGROV-1; read-out: TGI
  TGI: 4.63 µM
IGROV-1; read-out: pGI50 (converted)
  GI50: 2.29 µM
IGROV-1; [13]
  CC50: 9.33 µM
IGROV-1; read-out: pTGI (converted)
  TGI: 4.68 µM
UACC-257; read-out: GI50
  GI50: 2.13 µM
UACC-257; [12]
  CC50: 19.3 µM
UACC-257; read-out: TGI
  TGI: 4.93 µM
UACC-257; read-out: pGI50 (converted)
  GI50: 2.14 µM
UACC-257; [13]
  CC50: 19.5 µM
UACC-257; read-out: pTGI (converted)
  TGI: 4.9 µM
M14 [3]; read-out: GI50
  GI50: 1.81 µM
M14 [3]; read-out: TGI
  TGI: 3.92 µM
M14 [3]; read-out: pGI50 (converted)
  GI50: 1.82 µM
M14 [3]; read-out: pTGI (converted)
  TGI: 3.89 µM
SNB-75; read-out: GI50
  GI50: 1.77 µM
SNB-75; [12]
  CC50: > 100 µM
SNB-75; read-out: TGI
  TGI: 5.37 µM
SNB-75; read-out: pGI50 (converted)
  GI50: 1.78 µM
SNB-75; [13]
  CC50: > 100 µM
SNB-75; read-out: pTGI (converted)
  TGI: 5.37 µM
CAKI-1
  growth at 100 µM: -65%
SK-OV-3 [4]
  growth at 100 µM: 4%
SK-MEL-2
  growth at 100 µM: -71%
SF-295
  growth at 100 µM: -57%
RPMI-8226
  growth at 100 µM: -15%
HL-60(TB) [5]
  growth at 100 µM: -36%
UO-31
  growth at 1 µM: 89%
A498 [6]
  growth at 1 µM: 78%
SK-MEL-5
  growth at 1 µM: 83%
MDA-MB-435
  growth at 1 µM: 90%
SF-539
  growth at 1 µM: 101%
SF-268
  growth at 1 µM: 104%
HOP-62
  growth at 1 µM: 99%
HL-60(TB) [7]
  growth at 1 µM: 99%
MDA-MB-231
  growth at 0.1 µM: 95%
SK-MEL-28
  growth at 0.1 µM: 88%
M14 [8]
  growth at 0.1 µM: 92%
A549
  growth at 0.1 µM: 90%
DU-145
  growth at 0.01 µM: 113%
TK-10
  growth at 0.01 µM: 103%
786-0 [9]
  growth at 0.01 µM: 101%
A498 [10]
  growth at 0.01 µM: 79%
SK-OV-3 [11]
  growth at 0.01 µM: 100%
OVCAR-4
  growth at 0.01 µM: 97%
